Data reported in US12527788B2, “Defining RNA-small molecule affinity landscapes enables design of a small molecule inhibitor of an oncogenic non-coding RNA” (University of Florida Research Foundation, Incorporated, priority 2017, dated 2026).

Columns and labels:
4IL1 RNA = assay: Competitive binding assay with 4-FL; conditions: RNA 4IL1, competitive binding with 4-FL; read-out: Binding affinity
Protocol: (§1) Competitive binding assays were completed by incubating the RNA of interest with 100 nM 4-FL and increasing concentrations of 4. The resulting curves were fit to equation 4:
(§2) [formula] where θ is the percentage of 4-FL bound, [4-FL] is the concentration of 4-FL, Kt is the dissociation constant of RNA and 4-FL, [RNA] is the concentration of RNA, Ct is the concentration of 4, Kd is the dissociation constant for 4, and A is a constant.

4IL8 RNA = assay: Competitive binding assay with 4-FL; conditions: RNA 4IL8, competitive binding with 4-FL; read-out: Binding affinity
Protocol: as §1, §2

[1] = system: 5′G_U/3′CUA (one nucleotide U bulge); assay: HiT-StARTS Fitness Score, 3×2 ILL selection; format: binding, human; conditions: Zobs normalized to most significant binder
Text: (§3) Additionally, Zobs Rank (and by analogy Zobs) can also be used to estimate the affinities of binding interactions (FIG. 5). Single exponential curves with an asymptote defined a correlation between Zobs and experimentally determined Kd for each compound and its cognate RNA motifs. In all cases, there is excellent correlation with R values ranging from 0.86 to 0.96. These scoring functions can provide a means to rapidly profile small molecules for binding to an “on-” and “off-” targets, as mentioned above. Zobs values were normalized to the most statistically significant RNA binder (100% Fitness) to afford Fitness Scores.
(§4) To test the general applicability of these approaches to other RNA motif libraries, we used 2DCS to select RNA motifs derived from a 3×2 internal loop library (3×2 ILL) that bind to small molecules 1-8. […] That is, selective binders have Zobs>8 (p<0.0001) and relative Zobs defined a scoring function for the selected RNA motif-small molecule interactions.
(§5) These studies identified that compound 4 bound with 100% Fitness to the 5′ G_U/3′CUA (one nucleotide U bulge) that is present in the Dicer processing sites of three microRNAs (miRNAs) in the oncogenic miR-17-92 cluster (contains six mature miRNAs),^43 miR-17, -18a, and -20a. […] The binding affinity of 4 for RNAs containing these three bulges was measured (FIG. 7).
(§6) Calculating Statistical Significance (Zobs) for Selected RNAs: To determine if the difference in frequency for given RNA in the starting library and in the selection was statistically significant, a pooled population comparison (Zobs) was calculated using equations (1) and (2):
(§7) [formula] […] Where n1 is the size of population 1 (number of reads for a selected RNA); n2 is the size of population 2 (number of reads for the same RNA from sequencing of the starting library); p1 is the observed proportion of population 1 (number of reads for a selected RNA divided by the total number of reads); p2 is the observed proportion for population 2 (number of reads for the same RNA divided by the total number of reads in the starting library).

[2] = system: 5′GAU/3′C_A (A bulge of pre-miR-18a); assay: HiT-StARTS Fitness Score, 3×2 ILL selection; format: binding, human; conditions: Zobs normalized to most significant binder
Text: as §3, §4, §5, §6, §7

[3] = system: 5′GGU/3′C_A (G bulge of pre-miR-17 and pre-miR-20a); assay: HiT-StARTS Fitness Score, 3×2 ILL selection; format: binding, human; conditions: Zobs normalized to most significant binder
Text: as §3, §4, §5, §6, §7

selected RNA motifs = assay: In solution fluorescence-based binding affinity measurement; conditions: read-out: Average Kd of Selected RNA Binders
Protocol: Bound RNA motifs for each compound were harvested from the array surface, amplified, and identified by using high throughput sequencing (RNA-seq). Highly abundant RNAs in the sequencing data were then subjected to binding measurements. Typically, those RNAs that were highly enriched bound to the small molecules with affinities (Kds) that ranged from 1 to 10 μM (FIG. 2 and Table 1) while binding to the starting libraries was not saturable. These affinities are promising for binding RNA, as it has been difficult to acquire low micromolar affinity with compounds of this low molecular weight. In fact, RNAs that have undergone Darwinian evolution to bind small molecules, namely riboswitches, often bind their cognate ligand at […] concentrations;^30-33 bioactive compounds that mimic riboswitch ligands bind with similar affinities.^30,34
Binding Affinity Measurements: An in solution, fluorescence-based assay was used to determine binding affinities by monitoring the change in fluorescence intensity of 1-FL (or 2-FL/3-FL/4-FL) as a function of RNA concentration as described previously.^18 Briefly, the RNA of interest was folded in 1× Folding Buffer (8 mM Na2HPO4, pH 7.0, 185 mM NaCl and 1 mM EDTA) by heating at 60° C. for 5 min followed by slowly cooling to room temperature on the bench top. Then, the FL-conjugated compound was added into the RNA solution to a final concentration of 100 nM. Serial dilutions were then completed using 1× Folding Buffer supplemented with 100 nM FL-conjugated compound. The solutions were incubated at room temperature for 30 min and then transferred to a well of a black 384-well plate. Fluorescence intensity was measured using a Bio-Tek FL×800 plate reader with an excitation wavelength of 485/20 nm and an emission wavelength of 528/20 nm. The change in fluorescence intensity as a function of the concentration of RNA was fit to equation 3:^9 I=I0+0.5 Δε{([FL]0+[RNA]0 +Kd)−(([FL]0+[RNA]0+Kd)^2−4[FL]0[RNA]0)^1/2} (3) where I is the observed fluorescence intensity; I0 is the fluorescence intensity in the absence of RNA; Δε is the difference between the fluorescence intensity in the absence of RNA and in the presence of infinite RNA concentration; [FL]0 is the concentration of compound; [RNA]0 is the concentration of the selected RNA; and Kd is the dissociation constant.

**Q.** For `CN1CCN(c2ccc(-c3ccc4nc(-c5cc(C(C)(C)C)c(OCCCC(=O)NCCCN=[N+]=[N-])c(C(C)(C)C)c5)[nH]c4c3)cc2)CC1` [Compound 4], which Kd (4IL1 RNA) is on record?
**A.** 5.5 ± 1.3 µM

**Q.** What about the Kd (4IL8 RNA) of the same molecule?
**A.** 7.5 ± 0.6 µM

**Q.** And the Fitness [1]?
**A.** 100%

**Q.** What about the Fitness [2] of the same molecule?
**A.** 91%

**Q.** What about the Fitness [3] of the same molecule?
**A.** 78%

**Q.** What about the Kd (selected RNA motifs) of the same molecule?
**A.** 11 ± 2 µM
